The text below walks through data of patent publication US9120812B2, “Pyrimidooxazocine derivatives as mTOR-inhibitors” (SANOFI, priority 2012, dated 2015).

Structures are written as SMILES. A value given as a limit tells only on which side of the number the result lay.

Experiment [1] concerns the target mTOR (human recombinant aa mTOR 1360-2549) (Homo sapiens (Human), UniProt P42345). Nature of the experiment: mTOR enzymatic test by TR-FRET (phosphorylation of GFP-4EBP1). The experiment is classed as biochemical. Put shortly: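 After a 30 min room-temperature kinase reaction, EDTA (10 mM final) and Tb-labelled phospho-Thr46 antibody (2 nM final) were added and incubated 60 min. Energy transfer from Tb to phosphorylated GFP-4EBP1 was read at 340 nm excitation, emissions 490/520 nm. Values derive from the 520/490 fluorescence ratio.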
(In TR-FRET formats the signal depends on donor and acceptor labels being close together.)

The target of a further experiment is PI3Kα (p110α/p85α) (Homo sapiens (Human), UniProt P42336). Description: PI3Kα enzymatic test by measuring the consumption of ATP. The format is biochemical. Put shortly:
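ATP consumption read out by KinaseGlo luminescence after a 90 min reaction of 1.7 μg/ml PI3Kα (p110α/p85α) with 2 μM ATP and 50 μM PIP2, buffered at pH 7.5 (Tris, 10 mM MgCl2, 1 mM EGTA, 0.03% Chaps, 1 mM DTT). Threefold dilution series over ≥10 000-fold range yield IC50.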

The test system of the next experiment is U87MG tumour cells. Nature of the experiment: Test of in vitro proliferation of U87MG tumour cells. The format is cell-based. Particulars: Homo sapiens, U-87 MG, 72 h, U87MG cells, 72 hours; read-out: U87 Cell Proliferation IC50. Here is the method: Model 4: Test of in vitro Proliferation of U87MG Tumour Cells.
The cell growth is determined with the reagent CellTiter 96 AQueous One Solution Cell Proliferation Assay from Promega (Cat. No. G3581).

A further experiment relates to Akt-pS473 in U87MG cells. The following applies: Homo sapiens, U-87 MG, read-out: U87 Akt-pS473 % Inhibition or IC50, nM (IC50), U87MG cells.

Chain of mTOR (human recombinant aa mTOR 1360-2549) (P42345 1360-2549): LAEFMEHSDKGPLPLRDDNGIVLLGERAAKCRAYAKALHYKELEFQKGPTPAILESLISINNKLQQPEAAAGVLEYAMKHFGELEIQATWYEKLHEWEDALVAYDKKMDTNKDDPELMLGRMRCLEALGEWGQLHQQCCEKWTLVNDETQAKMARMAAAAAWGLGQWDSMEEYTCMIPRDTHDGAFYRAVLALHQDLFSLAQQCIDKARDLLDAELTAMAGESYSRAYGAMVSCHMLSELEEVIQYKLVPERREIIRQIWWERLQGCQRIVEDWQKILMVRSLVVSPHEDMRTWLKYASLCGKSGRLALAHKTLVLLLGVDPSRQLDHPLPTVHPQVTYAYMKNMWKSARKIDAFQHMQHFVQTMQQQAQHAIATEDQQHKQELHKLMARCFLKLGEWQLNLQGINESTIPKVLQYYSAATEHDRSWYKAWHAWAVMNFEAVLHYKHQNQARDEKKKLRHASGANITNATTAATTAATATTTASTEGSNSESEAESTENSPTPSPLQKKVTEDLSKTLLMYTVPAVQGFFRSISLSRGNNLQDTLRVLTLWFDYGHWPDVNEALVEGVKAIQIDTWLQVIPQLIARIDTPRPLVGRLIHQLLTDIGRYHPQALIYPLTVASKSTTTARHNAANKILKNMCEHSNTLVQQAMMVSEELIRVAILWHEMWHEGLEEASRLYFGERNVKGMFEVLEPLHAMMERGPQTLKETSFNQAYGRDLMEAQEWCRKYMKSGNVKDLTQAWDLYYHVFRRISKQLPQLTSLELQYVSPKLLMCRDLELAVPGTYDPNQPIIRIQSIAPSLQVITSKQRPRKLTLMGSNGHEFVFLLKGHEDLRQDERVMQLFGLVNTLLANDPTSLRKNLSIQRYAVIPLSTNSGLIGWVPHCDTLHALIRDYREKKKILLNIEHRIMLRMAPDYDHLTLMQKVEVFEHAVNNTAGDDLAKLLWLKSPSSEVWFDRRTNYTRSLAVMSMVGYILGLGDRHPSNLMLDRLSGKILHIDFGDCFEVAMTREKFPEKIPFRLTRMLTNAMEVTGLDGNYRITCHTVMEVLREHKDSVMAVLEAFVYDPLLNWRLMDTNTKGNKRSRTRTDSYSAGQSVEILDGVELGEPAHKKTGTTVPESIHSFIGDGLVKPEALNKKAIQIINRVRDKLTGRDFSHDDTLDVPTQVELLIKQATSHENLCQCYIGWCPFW
Chain of PI3Kα (p110α/p85α) (P42336 whole entry): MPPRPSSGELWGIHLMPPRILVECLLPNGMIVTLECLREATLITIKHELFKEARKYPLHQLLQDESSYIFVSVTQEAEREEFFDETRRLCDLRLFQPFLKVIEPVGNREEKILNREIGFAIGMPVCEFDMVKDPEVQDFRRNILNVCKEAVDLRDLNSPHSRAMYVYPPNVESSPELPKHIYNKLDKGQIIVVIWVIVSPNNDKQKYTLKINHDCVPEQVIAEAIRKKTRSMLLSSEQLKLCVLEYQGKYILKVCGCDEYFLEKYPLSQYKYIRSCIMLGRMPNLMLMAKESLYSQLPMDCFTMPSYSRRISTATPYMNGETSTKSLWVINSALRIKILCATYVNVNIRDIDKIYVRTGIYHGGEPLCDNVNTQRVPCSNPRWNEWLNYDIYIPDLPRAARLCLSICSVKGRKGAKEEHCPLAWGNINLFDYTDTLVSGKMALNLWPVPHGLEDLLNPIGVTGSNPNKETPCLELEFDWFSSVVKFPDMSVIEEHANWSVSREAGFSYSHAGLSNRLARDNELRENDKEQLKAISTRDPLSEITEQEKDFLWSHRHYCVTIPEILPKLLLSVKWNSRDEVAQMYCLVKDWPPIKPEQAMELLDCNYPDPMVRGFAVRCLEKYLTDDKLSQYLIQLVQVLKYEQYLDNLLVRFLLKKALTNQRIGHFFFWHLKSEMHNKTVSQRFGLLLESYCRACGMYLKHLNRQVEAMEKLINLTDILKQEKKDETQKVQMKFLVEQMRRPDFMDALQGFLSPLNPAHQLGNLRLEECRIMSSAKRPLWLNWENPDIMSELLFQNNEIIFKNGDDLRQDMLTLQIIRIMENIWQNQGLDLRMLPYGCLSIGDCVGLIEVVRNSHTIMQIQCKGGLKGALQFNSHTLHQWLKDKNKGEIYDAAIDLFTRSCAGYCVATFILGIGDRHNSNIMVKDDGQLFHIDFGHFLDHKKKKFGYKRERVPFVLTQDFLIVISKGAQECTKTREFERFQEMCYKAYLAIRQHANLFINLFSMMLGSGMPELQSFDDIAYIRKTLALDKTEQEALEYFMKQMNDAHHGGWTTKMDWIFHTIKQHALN
Chain of PI3Kα (p110α/p85α) (P27986 whole entry partner): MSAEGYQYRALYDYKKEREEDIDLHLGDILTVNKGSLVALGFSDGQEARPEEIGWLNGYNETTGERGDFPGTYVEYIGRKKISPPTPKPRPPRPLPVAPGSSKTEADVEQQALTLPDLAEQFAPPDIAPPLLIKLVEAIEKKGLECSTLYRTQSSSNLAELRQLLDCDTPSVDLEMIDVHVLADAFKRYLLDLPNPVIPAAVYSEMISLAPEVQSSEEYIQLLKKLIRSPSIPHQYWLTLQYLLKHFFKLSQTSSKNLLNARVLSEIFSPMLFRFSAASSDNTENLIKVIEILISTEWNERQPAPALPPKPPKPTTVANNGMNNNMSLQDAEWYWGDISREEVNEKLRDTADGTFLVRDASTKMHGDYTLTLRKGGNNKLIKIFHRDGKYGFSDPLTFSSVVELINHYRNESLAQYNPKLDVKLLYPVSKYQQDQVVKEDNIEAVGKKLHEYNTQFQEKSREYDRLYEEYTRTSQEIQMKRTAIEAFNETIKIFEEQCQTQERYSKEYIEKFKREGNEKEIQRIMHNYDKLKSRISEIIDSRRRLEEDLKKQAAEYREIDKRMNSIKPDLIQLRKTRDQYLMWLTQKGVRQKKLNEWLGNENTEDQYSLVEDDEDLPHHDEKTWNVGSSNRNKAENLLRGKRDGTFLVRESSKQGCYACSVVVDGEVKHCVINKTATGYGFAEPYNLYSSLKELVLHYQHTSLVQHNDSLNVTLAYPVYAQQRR

Take `CCN1CC(C)(C)Oc2nc(N3CC4CCC(C3)O4)nc(-c3ccc(NC(=O)Nc4ccc(F)c(OC)c4)c(F)c3)c2C1=O` [Example 138, 1-{4-[6-Ethyl-8,8-dimethyl-2-(8-oxa-3-azabicyclo[3.2.1]oct-3-yl)-5-oxo-5,6,7,8-tetrahydro-9-oxa-1,3,6-triazabenzocyclohepten-4-yl]-2-fluorophenyl}-3-(4-fluoro-3-methoxyphenyl)urea]: the IC50 in experiment [1] was found to be 0.299 µM; with U87MG tumour cells, 0.331 µM; in the experiment on Akt-pS473 in U87MG cells it was 105 nM. For the same compound, the “PI3Ka IC50” value on PI3Kα (p110α/p85α) was above 10 µM.
The corresponding values for `CCN1CC(C)(C)Oc2nc(N3CC4CCC(C3)O4)nc(-c3ccc(NC(=O)Nc4cncc(OC)n4)c(F)c3)c2C1=O` [Example 139, 1-{4-[6-Ethyl-8,8-dimethyl-2-(8-oxa-3-azabicyclo[3.2.1]oct-3-yl)-5-oxo-5,6,7,8-tetrahydro-9-oxa-1,3,6-triazabenzocyclohepten-4-yl]-2-fluorophenyl}-3-(6-methoxypyrazin-2-yl)urea] are 0.251 µM, 3.01 µM, 721 nM and above 10 µM.
As to `CCN1CC(C)(C)Oc2nc(N3CC4CCC(C3)O4)nc(-c3ccc(NC(=O)Nc4ccc(OC)nn4)c(F)c3)c2C1=O` [Example 140, 1-{4-[6-Ethyl-8,8-dimethyl-2-(8-oxa-3-azabicyclo[3.2.1]oct-3-yl)-5-oxo-5,6,7,8-tetrahydro-9-oxa-1,3,6-triazabenzocyclohepten-4-yl]-2-fluorophenyl}-3-(6-methoxypyridazin-3-yl)urea], the figures for the IC50 (in experiment [1]; in the experiment on U87MG tumour cells; in the experiment on Akt-pS473 in U87MG cells) were 0.045 µM, 0.472 µM and 507 nM, respectively. The “PI3Ka IC50” value on PI3Kα (p110α/p85α) is above 10 µM.
Turning to `CCN1CC(C)(C)Oc2nc(N3CCOC[C@@H]3C)nc(-c3ccc(NC(=O)Nc4ccc(OC)nc4)c(F)c3)c2C1=O` [Example 141, 1-{4-[6-Ethyl-8,8-dimethyl-2-((S)-3-methylmorpholin-4-yl)-5-oxo-5,6,7,8-tetrahydro-9-oxa-1,3,6-triazabenzocyclohepten-4-yl]-2-fluorophenyl}-3-(6-methoxypyridin-3-yl)urea], the IC50 in experiment [1] was found to be 0.034 µM; in the experiment on U87MG tumour cells it was 0.094 µM; with Akt-pS473 in U87MG cells, 19 nM. Besides, the “PI3Ka IC50” value at PI3Kα (p110α/p85α) stood at 0.598 µM.
On the same counts, the results for `CCN1CC(C)(C)Oc2nc(N3CC4CCC(C3)O4)nc(-c3ccc(NC(=O)Nc4cnn(C)c4)c(F)c3)c2C1=O` [Example 143, 1-{4-[6-Ethyl-8,8-dimethyl-2-(8-oxa-3-azabicyclo[3.2.1]oct-3-yl)-5-oxo-5,6,7,8-tetrahydro-9-oxa-1,3,6-triazabenzocyclohepten-4-yl]-2-fluorophenyl}-3-(1-methyl-1H-pyrazol-4-yl)urea] are 0.019 µM, 0.295 µM, 62 nM and 3.18 µM.
Regarding `CCN1CC(C)(C)Oc2nc(N3CC4CCC(C3)O4)nc(-c3ccc(NC(=O)Nc4ccnc(OC)n4)c(F)c3)c2C1=O` [Example 144, 1-{4-[6-Ethyl-8,8-dimethyl-2-(8-oxa-3-azabicyclo[3.2.1]oct-3-yl)-5-oxo-5,6,7,8-tetrahydro-9-oxa-1,3,6-triazabenzocyclohepten-4-yl]-2-fluorophenyl}-3-(2-methoxypyrimidin-4-yl)urea], the IC50 is 0.105 µM in experiment [1], 2.57 µM with U87MG tumour cells and 142 nM in the experiment with Akt-pS473 in U87MG cells. Besides, at PI3Kα (p110α/p85α), the “PI3Ka IC50” value is above 10 µM.
For `CCN1CC(C)(C)Oc2nc(N3CC4CCC(C3)O4)nc(-c3ccc(NC(=O)Nc4ccc(OC)nn4)cc3)c2C1=O` [Example 146, 1-{4-[6-Ethyl-8,8-dimethyl-2-(8-oxa-3-azabicyclo[3.2.1]oct-3-yl)-5-oxo-5,6,7,8-tetrahydro-9-oxa-1,3,6-triazabenzocyclohepten-4-yl]phenyl}-3-(6-methoxypyridazin-3-yl)urea], the IC50 in experiment [1] was found to be 0.035 µM; with U87MG tumour cells, 0.441 µM; in the experiment on Akt-pS473 in U87MG cells, 82 nM. Further, the “PI3Ka IC50” value on PI3Kα (p110α/p85α) was above 10 µM.
`CCN1CC(C)(C)Oc2nc(N3CC4CCC(C3)O4)nc(-c3ccc(NC(=O)Nc4cccc(C(F)(F)F)c4)cc3)c2C1=O` [Example 147, 1-{4-[6-Ethyl-8,8-dimethyl-2-(8-oxa-3-azabicyclo[3.2.1]oct-3-yl)-5-oxo-5,6,7,8-tetrahydro-9-oxa-1,3,6-triazabenzocyclohepten-4-yl]phenyl}-3-(3-trifluoromethylphenyl)urea]: the IC50 was determined as 0.182 µM in experiment [1], 0.297 µM in the experiment with U87MG tumour cells and 28 nM with Akt-pS473 in U87MG cells. Besides, the “PI3Ka IC50” value at PI3Kα (p110α/p85α) is above 10 µM.
On to `COc1ccc(NC(=O)Nc2ccc(-c3nc(N4CC5CCC(C4)O5)nc4c3C(=O)N(C3CCOCC3)CC(C)(C)O4)cc2)cn1` [Example 148, 1-{4-[8,8-Dimethyl-2-(8-oxa-3-azabicyclo[3.2.1]oct-3-yl)-5-oxo-6-(tetrahydropyran-4-yl)-5,6,7,8-tetrahydro-9-oxa-1,3,6-triazabenzocyclohepten-4-yl]phenyl}-3-(6-methoxypyridin-3-yl)urea], for which the IC50 came to 0.068 µM in experiment [1], 0.49 µM with U87MG tumour cells and 21 nM in the experiment with Akt-pS473 in U87MG cells. For the same compound, the “PI3Ka IC50” value on PI3Kα (p110α/p85α) was above 10 µM.
The corresponding values for `CCN1CC(C)(C)Oc2nc(N3CCOC[C@@H]3C)nc(-c3ccc(NC(=O)NCC(F)(F)F)c(F)c3)c2C1=O` [Example 149, 1-{4-[6-Ethyl-8,8-dimethyl-2-((S)-3-methylmorpholin-4-yl)-5-oxo-5,6,7,8-tetrahydro-9-oxa-1,3,6-triazabenzocyclohepten-4-yl]-2-fluorophenyl}-3-(2,2,2-trifluoroethyl)urea] are 0.113 µM, 0.854 µM, 154 nM and above 10 µM.
On to `CCN1CC(C)(C)Oc2nc(N3CCOC[C@@H]3C)nc(-c3ccc(NC(=O)NC4CC4)c(F)c3)c2C1=O` [Example 150, 1-Cyclopropyl-3-{4-[6-ethyl-8,8-dimethyl-2-((S)-3-methylmorpholin-4-yl)-5-oxo-5,6,7,8-tetrahydro-9-oxa-1,3,6-triazabenzocyclohepten-4-yl]-2-fluorophenyl}urea], for which the IC50 in experiment [1] was determined as 0.04 µM; with U87MG tumour cells, 0.201 µM; with Akt-pS473 in U87MG cells it was 73 nM. In addition, the “PI3Ka IC50” value on PI3Kα (p110α/p85α) was found to be 5.8 µM.
With `CCNC(=O)Nc1ccc(-c2nc(N3CCOC[C@@H]3CC)nc3c2C(=O)N(CC)CC(C)(C)O3)cc1F` [Example 151, 1-Ethyl-3-{4-[6-ethyl-2-((S)-3-ethylmorpholin-4-yl)-8,8-dimethyl-5-oxo-5,6,7,8-tetrahydro-9-oxa-1,3,6-triazabenzocyclohepten-4-yl]-2-fluorophenyl}urea], the IC50 in experiment [1] was 0.116 µM; with U87MG tumour cells it was 0.531 µM; in the experiment with Akt-pS473 in U87MG cells it was 82 nM. In addition, on PI3Kα (p110α/p85α), the “PI3Ka IC50” value is above 10 µM.
As to `CCN1CC(C)(C)Oc2nc(N3CC4CCC(C3)O4)nc(-c3ccc(Nc4nnc(C)[nH]4)c(F)c3)c2C1=O` [Example 152, 6-Ethyl-4-[3-fluoro-4-(5-methyl-4H-[1,2,4]triazol-3-ylamino)phenyl]-8,8-dimethyl-2-(8-oxa-3-azabicyclo[3.2.1]oct-3-yl)-7,8-dihydro-6H-9-oxa-1,3,6-triazabenzocyclohepten-5-one], the IC50 stood at 0.348 µM in experiment [1], 2.68 µM in the experiment on U87MG tumour cells and 257 nM in the experiment with Akt-pS473 in U87MG cells. In addition, the “PI3Ka IC50” value on PI3Kα (p110α/p85α) is above 10 µM.
